Read-outs that look alike come from different tables or passages of the source.

For data set [1], the system named is Mecp2 mice. The experiment in a line: locomotor activity (photobeam) in Mecp2 mutant mice and controls. In kind it is in vivo. The note with it: 0.1 to 20 mg/kg. On the procedure: Locomotor activity was monitored using methods described previously (Shaevitz et al. 2013 Genes Brain Behav, 12(7): 732-40. doi: 10.1111/gbb.12070). Mecp2 mutant males (between 1 and 3 months old) and females (between 3 and 6 months old) and age-matched controls were monitored for one-hour prior to and 12 hours after drug (or vehicle: 20% DMSO in saline) administration (one set of mice received IP injections and one set of mice received oral gavage) in doses that ranged from 0.1-20 mg/kg). Activity was measured across the 12-h dark cycle using a photobeam activity system (San Diego instruments, San Diego, Calif., USA). Mice were placed individually into a cage (47×25×21 cm) inside a rectangular arena equipped with a 3×8 array of photobeams. The average number of ambulatory (two adjacent) and fine (repeated single) beam breaks per hour over the 12 h was compared. [N=2 mice/group at each dose and each administration route; for the vehicle controls, N=6 WT/group; N=6 Mecp2/group]. Data were analyzed using repeated measures analysis of variance.

Data set [2] deals with cholinesterase. Briefly: cholinesterase inhibition (IC50). Format: biochemical.
The subject of data set [3] is CaCo-2 cells. The experiment in a line: in vitro permeability of a layer of CaCo-2 cells. In kind it is in vitro ADME, human. The note with it: predicted from CaCo-2 permeability.
Data set [4] in a line: liver microsome stability. Format: in vitro ADME, Mouse. The settings on record: for half-life at 5 μM: mouse, liver microsomes.
For data set [5], the system named is mice. The note with it: cited from earlier work; for adverse effects at very high doses: 50-100 mg/kg.
In data set [6] the test system is Mecp2 mice. The experiment in a line: respiratory function (plethysmograph) in Mecp2 mutant mice and controls. The note with it: IP or gavage, 0.1 to 20 mg/kg. Format: in vivo. The procedure:
Respiratory function was monitored in a plethysmograph (EMKA Technologies) for 30 minutes prior to and 1 hour after drug administration (one set of mice received IP injections and one set of mice received oral gavage). [N=2 mice/group at each dose and each administration route; for the vehicle controls, N=6 WT/group; N=6 Mecp2/group]. Data were analyzed using repeated measures analysis of variance.

The target in data set [7] is T1, α7 nicotinic receptors (Rattus norvegicus, UniProt Q05941).
T1 construct: Primary cultured rat neurons can be depolarized by the application of 1.5 mM choline; endogenous in cells; host or cells: primary cultured rat neurons
T1 sequence (Q05941 23-502): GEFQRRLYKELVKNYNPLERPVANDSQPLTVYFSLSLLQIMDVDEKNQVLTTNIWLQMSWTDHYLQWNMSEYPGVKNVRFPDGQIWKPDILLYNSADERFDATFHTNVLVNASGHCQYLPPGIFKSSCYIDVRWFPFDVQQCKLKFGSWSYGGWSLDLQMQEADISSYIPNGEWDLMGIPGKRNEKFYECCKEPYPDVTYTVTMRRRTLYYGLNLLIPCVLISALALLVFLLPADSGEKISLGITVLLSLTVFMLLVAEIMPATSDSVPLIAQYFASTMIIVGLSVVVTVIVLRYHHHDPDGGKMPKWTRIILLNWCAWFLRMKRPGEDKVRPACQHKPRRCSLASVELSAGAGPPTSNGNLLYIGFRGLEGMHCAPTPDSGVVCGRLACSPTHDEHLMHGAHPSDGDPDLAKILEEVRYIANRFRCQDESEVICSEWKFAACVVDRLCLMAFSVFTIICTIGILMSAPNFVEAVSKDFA
The settings on record: cited from earlier work.

Data set [8] is described as follows: stability in mouse plasma.
Data set [9] has as its target cholinesterase. The note with it: cholinesterase inhibitor (Han et al 1991); cited from earlier work.
In data set [10] the test system is mice with lesions of the nucleus basalis magnocellularis. The note with it: cited from earlier work; for increase of time remaining in the lighted compartment versus saline: nBM lesioned mice, compound given during training, optimal performance; for best dose for memory enhancement: passive avoidance, 24 hour retention.
Data set [11] concerns female Mecp2 mice. The experiment in a line: novel object recognition (NOR) task in female Mecp2 mice. Format: in vivo. The settings on record: Mecp2 females. On the procedure: Cognitive function was assessed using the novel object recognition (NOR) task using methods previously described (Schaevitz et al. 2013). […] Novel object memory was assessed during three sessions. This task relies on the innate tendency of a mouse to explore unfamiliar objects vs. familiar objects. Testing was performed in an open-field arena. Twenty-four hours prior to training, mice were habituated to the arena for 10 min. Ninety minutes before training, the mice were administered drug or vehicle (0.1, 0.5, 1.0, 2.5 and 5.0 mg/kg IP). During training, mice were given 10 min to explore two identical Lego objects (A+A). Short- and long-term object memory were assessed in two subsequent sessions ([…]) during which mice were given 10 min to explore the familiar (A) or a novel (B or C) object. The duration of exploration (defined as the mouse's snout or forelimbs physically touching or approaching within 1 cm of an object) of familiar and novel objects was measured. The amount of time spent exploring the novel object over the total time exploring both novel and familiar objects in each session was used to measure object memory. [N=6/dose of 0.1, 0.5 and 1.0; N=1/dose of 2.5 and 5.0 mg/kg; for vehicle N=6 WT and N=6 Mecp2 mice.]
For the novel objection recognition task data, we created a matrix of all wildtype and Mecp2 females who were administered the vehicle and a second matrix comparing Mecp2 females with and without the drug (all doses combined).

Data set [12] concerns ASD patients. The settings on record: case reports, open-label and poorly documented studies; cited from earlier work.
Data set [13] deals with mild cognitive impairment population. The note with it: patients with mild cognitive impairment; cited from earlier work.
In data set [14] the test system is patient with 15q13.3 deletion syndrome. The note with it: one patient; cited from earlier work.
For data set [15] the following is noted: human patients; cited from earlier work.
Where [16] appears, read: 5.0 μM, Mouse, read-out: NADPH-dependent T1/2 (half-life).
The mark [17] stands for this setting: 5.0 μM, Mouse, read-out: NADPH-free T1/2 (half-life).
[18] abbreviates: all doses combined (0.1-5.0 mg/kg IP).

Turning to `CCCCNC(=O)O[C@H]1C=C[C@@]23CCN(C)Cc4ccc(OC)c(c42)O[C@H]3C1` [Galantamine n-butylcarbamate, n-butylcarbamate derivative of galantamine], the tolerability result in [1] (Mecp2 mice of both sexes and controls, locomotor and respiratory functions) was “safe and well tolerated”. For the same compound, the “effect on locomotor activity” value in data set [1] (IP or gavage, Mecp2 mice of either sex) is listed as “did not impair locomotor activity”. The “cholinesterase inhibitory potency relative to galantamine” value in [2] is reported as “about 36%”. For the same compound, in data set [3], the predicted oral bioavailability is 80%. In data set [4] (5.0 μM, Mouse), the “NADPH-dependent CLint (microsomal intrinsic clearance)” value is recorded as 23.5 μl min^−1 mg−^1 and the “NADPH-free CLint (microsomal intrinsic clearance)” value came out at 0.0 μl min^−1 mg−^1. In addition, the half-life at 5 μM in data set [4] (setting [16]) turned out to be 98.2 min. The half-life at 5 μM in data set [4] (setting [17]) is over 60 min. Also, the half-life at 5 μM in data set [4] (in-vitro preparation of liver microsomes, read-out: half-life in liver microsomes) is over 60 min. Also, in data set [5] (listed as n-butylcarbamate), the “adverse effects at very high doses” value was “wobbly and off-balance with rapid heart rate still present at 4 hours, but were recovered at 24 hours”. In addition, in data set [5], the “adverse effects at very high doses” value is “affects cardiac and motor functions at very high doses”; the “lethality (dose without lethality)” value is on record as over 100 mg/kg. Besides, the “effect on respiratory activity” value in [6] is “did not affect respiratory activity”. Moreover, the “effect of FK-1 antibody on the enhancement” value in data set [7] (antibody to the galantamine recognition site on nicotinic receptors) is on record as “blocked by the antibody to the galantamine recognition site on nicotinic receptors, FK-1”. Further, the “stability in mouse plasma” value in data set [8] is recorded as “stable for greater than two hours”. Besides, the “concentration at two hours compared with galantamine” value in data set [8] (two hours) is listed as “slightly lower than those of galantamine”. Further, the IC50 in data set [9] was 1090 nM. Besides, in data set [10], the “increase of time remaining in the lighted compartment versus saline” value is recorded as “about 100 seconds” and the “best dose for memory enhancement” value was 0.5 mg/kg. Further, the “NOR task learning versus vehicle” value in [11] (Chi square p=0.0321) was “learned the NOR task significantly better than vehicle-injected Mecp2 mice”. In data set [11] (setting [18]), the “share of mice with NOR scores = or below 0.5” value turned out to be 65% and the “share of mice with NOR scores above 0.5” value worked out at 35%.

On to `COc1ccc2c3c1O[C@H]1C[C@@H](O)C=C[C@@]31CCN(C)C2` [Galantamine], for which the “clinical outcome in ASD” value in data set [12] is reported as “some beneficial results”. Also, the “enhancement of the depolarization caused by choline” value in data set [7] (1 μM compound, 1.5 mM choline, primary cultured rat neurons) is recorded as 20.6±4.2%. Moreover, in [13], the “mortality in mild cognitive impairment” value is reported as “increased mortality”. Further, the episodes of rage result in data set [14] is reported as “striking decrease in episodes of rage”. In data set [10], the “increase of time remaining in the lighted compartment versus saline” value is on record as “about 125 seconds” and the “best dose for memory enhancement” value was 3 mg/kg. Further, the plasma half-life entry in [15] was “about 7 hours”.

Turning to `COc1ccc2c3c1O[C@H]1C[C@@H](O)C=C[C@@]31CCN(C)C2` [Galanthamine HBr, reference compound], in [4] (5.0 μM, Mouse), the “NADPH-dependent CLint (microsomal intrinsic clearance)” value is listed as 0.0 μl min^−1 mg−^1 and the “NADPH-free CLint (microsomal intrinsic clearance)” value was determined as 0.0 μl min^−1 mg−^1. Moreover, the half-life at 5 μM in [4] (setting [16]) was over 60 min. The half-life at 5 μM in data set [4] (setting [17]) was over 60 min.

The values above are taken from patent US10561665B2, “Treatment of autism” (priority 2014, dated 2020).
